Experimental data: PubChem BioAssay (NCI)
“And” between values parts separate entries of the source, which are not always exact repeats. Equal entries are not always repeated.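 Cultured in 96-well plates, cells were exposed to test compound for 48 hours across five concentrations. Here, GI50 denotes the concentration required for 50% inhibition of growth. At the TGI there is no net growth.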

How the values were obtained:
Assay in all cases: inhibition of tumour cell growth, NCI panel, 48 h
A549 NSCLC = tested on: A549 NSCLC
ACHN renal = tested on: ACHN renal
DLD-1 colon = tested on: DLD-1 colon
HL-60(TB) leukemia = tested on: HL-60(TB) leukemia
HOP-62 NSCLC = tested on: HOP-62 NSCLC
K-562 leukemia = tested on: K-562 leukemia
KM20L2 colon = tested on: KM20L2 colon
LXFL 529 NSCLC = tested on: LXFL 529 NSCLC
OVCAR-5 ovarian = tested on: OVCAR-5 ovarian
RPMI-8226 leukemia = tested on: RPMI-8226 leukemia
SK-MEL-2 melanoma = tested on: SK-MEL-2 melanoma

Structure (SMILES)	TGI (A549 NSCLC)	TGI (ACHN renal)	TGI (DLD-1 colon)	TGI (HL-60(TB) leukemia)	TGI (HOP-62 NSCLC)	TGI (K-562 leukemia)	TGI (KM20L2 colon)	TGI (LXFL 529 NSCLC)	TGI (OVCAR-5 ovarian)	TGI (RPMI-8226 leukemia)	TGI (SK-MEL-2 melanoma)	GI50 (ACHN renal)	GI50 (HOP-62 NSCLC)	GI50 (OVCAR-5 ovarian)	GI50 (RPMI-8226 leukemia)	GI50 (A549 NSCLC)	GI50 (KM20L2 colon)	GI50 (SK-MEL-2 melanoma)
CCOC(=O)CSc1nnc(C(Sc2nc(-c3ccccc3)c(-c3ccccc3)[nH]2)C(C)C)n1-c1ccccc1 (stereo unspecified)	> 31.6 µM	> 31.6 µM	> 10 µM	> 31.6 µM	> 10 µM	> 100 µM	> 10 µM	> 10 µM	28.5 µM	> 86.9 µM	22.9 µM	–	–	–	–	–	–	–
CCCc1ccc(NCc2cc(OC)c(OC)c(OC)c2)cc1	> 100 µM	> 100 µM	48.1 µM	–	> 100 µM	51.6 µM	> 100 µM	40.5 µM	> 100 µM	37 µM	44.2 µM	–	–	–	–	–	–	–
CC(NC(C)(C)C)C(=O)c1cccc(Cl)c1 (stereo unspecified)	> 100 µM	> 100 µM	> 100 µM	–	> 100 µM	> 100 µM	> 100 µM	> 100 µM	–	> 100 µM	> 100 µM	–	–	–	–	–	–	–
CC1(C)OCC(C(O)C2OC(C)(C)OC2/C=N\O)O1 (stereo unspecified)	> 100 µM	> 100 µM	> 100 µM	> 100 µM	> 100 µM	> 100 µM	> 100 µM	> 100 µM	> 100 µM	> 100 µM	> 100 µM	–	–	–	–	–	–	–
C/C1=C\[C@@H](O)C(=O)/C=C/C=C\c2csc(n2)[C@@H](C)NC(=O)C[C@@]2(CC1)S(=O)SC(=O)[C@]2(C)O (stereo partly specified)	0.713 µM and 0.368 µM	0.038 µM and 0.0122 µM	0.213 µM and 0.0233 µM	7.36 µM	0.374 µM and 1.83 µM	> 100 µM	0.636 µM and 0.599 µM	0.0333 µM and 0.0187 µM	0.699 µM and 0.145 µM	> 100 µM	0.0148 µM	0.00433 µM	0.28 µM	0.0169 µM	> 100 µM	–	–	–
COc1cc2c(cc1OC)C1(c3ccc(Cl)cc3)ON=C(c3ccccc3)N1CS2 (stereo unspecified)	> 100 µM	> 100 µM	> 100 µM	> 100 µM	> 100 µM	> 100 µM	> 100 µM	> 100 µM	> 100 µM	> 100 µM	> 100 µM	–	–	–	–	–	–	–
O=C(N/N=C/c1cc(Cl)cc(Cl)c1O)c1ccccc1O	15.8 µM	5.57 µM	–	–	–	> 100 µM	–	–	7.82 µM	–	6.87 µM	–	–	–	–	1.45 µM	4.85 µM	1.39 µM
COc1cc(/C=C(/C#N)C(N)=O)ccc1O	> 100 µM	–	> 100 µM	> 100 µM	> 100 µM	> 100 µM	> 100 µM	–	> 100 µM	> 100 µM	> 100 µM	–	–	–	–	–	–	–
Cc1cc(NCCCCCCCNc2cc(C)nc3cc([N+](=O)[O-])ccc23)c2ccc([N+](=O)[O-])cc2n1	9.41 µM	28.5 µM	3.55 µM	–	42 µM	–	32 µM	3.14 µM	29.8 µM	–	98.3 µM	–	–	–	–	–	–	–
Nc1ccc(C(=O)NN2C(=O)C(Cl)C2c2ccccc2)cc1 (stereo unspecified)	> 100 µM	> 100 µM	> 100 µM	–	> 100 µM	> 100 µM	> 100 µM	> 100 µM	> 100 µM	> 100 µM	> 100 µM	–	–	–	–	–	–	–
CCOC(=O)c1ccc(C(=O)C(C(C)=O)C(=O)OC(C)(C)C)[nH]1 (stereo unspecified)	> 100 µM	> 100 µM	–	> 100 µM	> 100 µM	> 100 µM	–	–	> 100 µM	> 100 µM	> 100 µM	–	–	–	–	–	–	–
COc1ccc2oc(=N)c(C(=O)Nc3ccccn3)cc2c1	> 100 µM	> 100 µM	–	> 100 µM	> 100 µM	> 100 µM	–	–	> 100 µM	> 100 µM	> 100 µM	–	–	–	–	–	–	–
O=C(Nc1cccc(F)c1)c1cc2ccc(O)cc2oc1=Nc1ccccc1F	13.8 µM	14.2 µM	–	7.48 µM	24.6 µM	> 100 µM	–	–	36.1 µM	> 100 µM	18.7 µM	–	–	–	–	–	–	–
